Legend:
HLA-DRB1 in WM793 cells = test: Immunofluorescent subcellular localization of HLA-DRB1; assay type: cell-based, human; conditions: vs. vehicle (DMSO)
Source text: FIGS. 18A-18F show N-linked fucosylation of HLA-DRB1 at N48 regulates its cell surface localization and is required for tumor suppression and increased TIL abundance. (a) (upper) Amino acid sequence alignments showing conservation of predicted N- and O-linked fucosylation sites in human HLA-DRB1 (N48 and T129) and mouse H2EB1 (N46 and T147). Structural modeling of the HLA-DRB1:HLA-DM (lower left) and CD4:HLA-DRB1:TCR (lower right) complexes. Potential glycosylation sites, N48 and T129, of HLA-DR1 beta chain are shown as sticks. CD4 (cyan), HLA-DRB1 (yellow), antigen peptide (magenta), and TCR (green)(lower right). (b) HLA-DRB1 peptide fragment identified by nano-LC/MS to be fucosylated on N48, with predicted HexNAc(4)Hex(3)Fuc(1) glycan structure shown above. (c) Lectin pull down (LPD) and IB analyses of EV and V5-tagged wild-type HLA-DRB1 (WT)-, HLA-DRB1 N48G (N48G)-, and HLA-DRB1 T129A (T129A)-expressing WM793 cells. (d) DMSO- or fucosyltransferase inhibitor (FUTi)-treated WM793 cells immunofluorescently stained for endogenous HLA-DRB1, KDEL (ER marker), and DAPI (20× magnification). […]

BM-myeloid cells = test: Expression of MDSC biology-related genes in BM-myeloid cells; assay type: cell-based, mouse; conditions: 24 or 72 hours after initial L-fuc treatment
Procedure: The expression of key MDSC biology-related genes was measured at 24 or 72 hours after in initial L-fuc treatment of the cells. Reductions in ARGI, PARP, and CHOP expression (red boxes; the expression of these genes are known to be required for MDSC immunosuppression. Increase in STAT1 is shown in green.
Next, we investigated the effect of L-fuc on NO production of bone marrow derived MDSCs (FIGS. 8A and 8B). We observed that L-fuc abrogated NO production in all cases. […] We also wanted to look at how L-fuc treatment effected the expression of immunosuppression genes (FIG. 9). We assessed the expression of key MDSC biology-related genes at 24 or 72 hours after in initial L-fuc treatment of the cells. Generally, we observed reductions in ARGI, PARP, and CHOP expression. In contrast we observed upregulation of STAT1. To further assess how L-fuc/fucosylation affects myeloid phenotype, we modulated fucosylation using DMSO (control), 2-fluoro-fucose (2FIF, fucosylation inhibitor), or L-fuc in mouse bone marrow-derived myeloid progenitors treated ±GM/G-CSF (FIG. 10). We profiled changes In M-MDSC vs. PMN-IMDSC, as well as moDC, as we observed immunostimulatory activity. […] Shown are the average values irom 12 mice. We also observed that L-fucose alters TLR profiles of dendritic cells (FIG. 11).

BM-derived MDSCs = test: NO production of BM-derived MDSCs (Greiss assay); assay type: cell-based, Balb/C mice; conditions: 250 uM L-fuc prior, during and/or after GM/G-CSF stimulation
Procedure: Tlhe myeloid cells, which were stimulated to imlmuno, suppressive MDSCs using GM/G-CSF, were divided into 3 treatment groups: (i) Treatment±250 uM L-fuc prior, duri ng, and after GM/G-CSF stimulation. Treatment±250 uM L-fuc during and after GM/G-CSF stimulation. (ii) Treatment±250 uM L-fuc only after GM/G-CSF stimulation. Greiss assay timepoints reier to hours after initial dose of L-fuc regardless of when cells were treated, L-fuc abrogated their ability to glenerate NO. […] We subsequently co-cultured the modulated MDSCs wilh T cells, which were then activated or not with CD3/CD28 beads and measured for IFNψ production. *. p •<0.05

CC(=O)OC1O[C@@H](C)[C@@H](OC(C)=O)[C@@H](OC(C)=O)[C@@H]1F (stereo partly shown) [FUTi, 2F-peracteyl-fucose, reference compound]
subcellular localization of HLA-DRB1 (HLA-DRB1 in WM793 cells): dimmer, more central, endoplasmic reticulum-co-localization of HLA-DRB1

C[C@H](O)[C@@H](O)[C@@H](O)[C@H](O)C=O [L-fucose]
ARGI, PARP, and CHOP expression (BM-myeloid cells): reductions
STAT1 expression (BM-myeloid cells): upregulation
NO production (BM-derived MDSCs): abrogated
